In patent publication US7037907B1 (The University of Melbourne, priority 1999, dated 2006):
Several values for one entry are separate records, joined by “and”; a condition that tells them apart may be missing. Equal values may be shown once.

Assays:
[1] = test system: A549 cells; assay: A549 cell DNA synthesis ([3H]-thymidine); type: cell-based; details: 5% fetal calf serum, 10 micromolar, [3H]-thymidine 24 hours after addition
Method: A549 cells were maintained in DMEM containing 5% fetal calf serum and undergoing asynchronous proliferation. DNA synthesis was determined by the addition of [3H]-thymidine 24 hours after the addition of one of 2-methoxyestradiol, 6-oxo-2-methoxyestradiol and 2-methoxyestradiol-17β-D-glucuronide.

[2] = test system: Human airway fibroblasts; assay: Human airway fibroblast cell number (haemocytometer); type: cell-based; details: stimulus Thrombin (0.3 U/ml), compound 10 μM
From the text: (§1) Human airway fibroblasts were obtained from volunteers in a follow-up of the Melbourne Epidemiological Survey of Childhood Asthma (MESCA) (Oswald et al., 1994) initially recruited at age 7 in 1965 and now 42 years old. Volunteers underwent bronchial biopsy which provided tissue samples of epithelium and mucosa of approximately 2 mm^3. These specimens were dissected to remove the epithelium and placed in plastic culture plates. Fibroblasts grew by explant culture over a six week period when maintained according to previously described methods (Zhang et al., 1996). Cells were seeded at subconfluent densities onto six cell plates and after 72 hours were rendered quiescent by serum deprivation. Twenty four hours after serum removal, cells were exposed to thrombin (0.3 U/ml) together with a serum-free medium supplement containing insulin, transferrin and selenium. Cells were harvested by incubation with Trypsin (0.5% w/v) for 10 min. or until a single cell suspension was produced. Cell numbers were then determined using a haemocytometer.

[3] = test system: Human Airway Smooth Muscle cells; assay: Human airway smooth muscle cell number; type: cell-based; details: compound 10 μM
From the text: as §1
Smooth muscle cells were obtained from airways resected from lung transplant recipients and cultured as previously described in detail (Fernandes et al., 1999). Cell numbers were determined in experiments of the same design as those described for human airway fibroblasts with the additional stimulus of 1% (v/v) fetal calf serum (FCS) being evaluated. In addition, [^3H]-thymidine incorporation was determined between 24 and 28 hours after the addition of thrombin to determine DNA synthesis (Fernandes et al. 1999).

[4] = test system: Airway smooth muscle cells; assay: Shape change of cultured airway smooth muscle cells; type: cell-based, human; details: 72 hours in culture, 5% FCS, 10 micro M
[5] = target: T1, estrogen receptor (rat uterine cytosol) (Rattus norvegicus, UniProt P06211)
T1 sequence (P06211 1-600): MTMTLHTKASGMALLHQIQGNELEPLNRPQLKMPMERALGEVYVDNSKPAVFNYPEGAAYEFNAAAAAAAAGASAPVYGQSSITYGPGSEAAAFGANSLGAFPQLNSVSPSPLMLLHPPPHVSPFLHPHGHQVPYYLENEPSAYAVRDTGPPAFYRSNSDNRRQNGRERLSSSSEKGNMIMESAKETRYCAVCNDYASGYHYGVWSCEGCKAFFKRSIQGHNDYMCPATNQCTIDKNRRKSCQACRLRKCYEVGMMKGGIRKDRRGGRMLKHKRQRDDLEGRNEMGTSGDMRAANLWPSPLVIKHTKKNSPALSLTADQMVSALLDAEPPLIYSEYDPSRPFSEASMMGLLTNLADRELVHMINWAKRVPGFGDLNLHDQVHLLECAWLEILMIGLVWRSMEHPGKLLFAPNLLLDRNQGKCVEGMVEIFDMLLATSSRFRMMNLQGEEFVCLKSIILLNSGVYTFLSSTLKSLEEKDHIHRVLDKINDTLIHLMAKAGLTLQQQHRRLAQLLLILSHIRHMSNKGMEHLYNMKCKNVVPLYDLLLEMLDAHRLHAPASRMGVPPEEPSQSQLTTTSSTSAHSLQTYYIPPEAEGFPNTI

[6] = target: T1, estrogen receptor (rat uterine cytosol); assay: biochemical
[7] = target: purified E. Coli-derived β-glucuronidase (Escherichia coli, UniProt P05804); assay: Susceptibility of 2-MEG to metabolism by E. Coli β-glucuronidase (HPLC); type: in vitro ADME; details: incubation with E. Coli β-glucuronidase for 16 hours in Tyrodes buffer
Method: At the end of these incubation periods, extraction was carried out by using 100 μl of reaction mixture with 200 μl of acetontrile (ACN) followed by the addition of 5 μl 2M HCL, vortexing and centrifugation at 1500 g (ambient temperature). Samples of enzyme incubates or quality control incubates were then chilled at −20° C. for at least 10 min, prior to removal of 120 μl of the upper (ACN) phase which is added to 120 μl distilled H2O. One hundred μl of this extract was injected into a Hewlett Packard Series 1050 HPLC fitted with a C18 analytical column (Hypersil ODS 3 μM, 4.6×150 mm) guarded by a pre column (Alltech Hypersil ODS 3 μM; 4.6×7.6 mm) and metabolites were detected with a Hewlett Packard 1046A fluorescence detector (I excitation 270 nm, emission, 320 nm). Metabolites were separated in a mobile phase of ACN buffer of 40:60 (buffer comprised 20 mM NaH2 PO4, 0.02% orthophosphoric acid, pH 3.1–3.2) at a flow rate of 0.7 ml/min. for the first 4 min with a linear gradient to a mobile phase of ACN: buffer (76:24) at 4.5 min. which was maintained for the remainder of the separation (10 min).

[8] = From the text: The octanol:water partition co-efficient is a measure of the relative aqueous and lipid solubility of a compound.
[9] = incubation with rat renal homogenates for 5.5 hours in Tyrodes buffer

Sequence of purified E. Coli-derived β-glucuronidase (P05804 whole entry): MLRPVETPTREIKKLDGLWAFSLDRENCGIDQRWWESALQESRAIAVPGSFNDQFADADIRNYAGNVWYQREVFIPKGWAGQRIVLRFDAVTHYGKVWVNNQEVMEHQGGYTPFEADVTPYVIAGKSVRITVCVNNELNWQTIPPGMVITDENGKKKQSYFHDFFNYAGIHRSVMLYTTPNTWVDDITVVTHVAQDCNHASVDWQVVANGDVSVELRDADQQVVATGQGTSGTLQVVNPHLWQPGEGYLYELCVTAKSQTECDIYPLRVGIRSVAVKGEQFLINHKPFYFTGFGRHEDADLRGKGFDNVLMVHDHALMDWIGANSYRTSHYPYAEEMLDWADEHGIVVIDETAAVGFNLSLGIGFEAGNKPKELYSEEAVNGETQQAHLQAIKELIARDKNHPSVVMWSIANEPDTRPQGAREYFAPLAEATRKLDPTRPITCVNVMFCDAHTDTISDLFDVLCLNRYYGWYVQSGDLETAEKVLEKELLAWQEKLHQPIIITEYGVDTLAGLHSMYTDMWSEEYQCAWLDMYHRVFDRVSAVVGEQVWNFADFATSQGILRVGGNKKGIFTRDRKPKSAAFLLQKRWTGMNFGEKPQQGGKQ

| displacement of [3H]estradiol at highest concentration ([5]; 10 μM displacer) | IC50 [6] [nM] | Structure (SMILES) | effect on DNA synthesis [1] | Cell Number (% control) [2] | Cell Number (% control) ([3]; stimulus FCS (1%, v/v)) | Cell Number (% control) ([3]; stimulus Thrombin (0.3 U/ml)) | cell shape change [4] | conversion of 2-MEG to 2-MEO [7] [%] | octanol/water partition coefficient ([8]; 1-octanol/water, fluorescence spectroscopy) | aqueous solubility relative to 2-MEO ([8]; inferred from partition coefficients) | logP ([8]; octanol/water) | conversion of 2-MEG to 2-MEO [9] [%] | affinity for estrogen receptors relative to 2-MEO (from logIC50 values) ([5]; rat uterine cytosol, [3H]estradiol displacement) |
| --- | --- | --- | --- | --- | --- | --- | --- | --- | --- | --- | --- | --- | --- |
|  |  | COc1cc2c(cc1O)C(=O)C[C@@H]1[C@@H]2CC[C@]2(C)[C@@H](O)CC[C@@H]12 [6-oxo-2-methoxyestradiol, 6-Oxo-2-methoxyestradiol] | reduce DNA synthesis significantly |  |  |  |  |  |  |  |  |  |  |
| incomplete response | ~100 | COc1cc2c(cc1O)CCC1C2CCC2(C)C(O)CCC12 (stereo not drawn) [2-MEO, 1,3,5(10)-estratriene-3,17βdiol 2 methyl ether, reference compound] | reduce DNA synthesis significantly | 12±8 % control and 12 ± 8, n = 7 % control | 25 ± 9, n = 5 % control | 14 ± 12, n = 10 % control | readily discernible shape change |  |  |  |  |  |  |
|  |  | COc1cc2c(cc1O)CC[C@@H]1[C@@H]2CC[C@]2(C)[C@@H](O[C@@H]3O[C@H](C(=O)O)[C@@H](O)[C@H](O)[C@H]3O)CC[C@@H]12 [2-MEG, 2-Methoxyestradiol-17-b-D-glucopyranosiduronic acid] | ineffective |  | 47 ± 16, n = 5 % control | 29 ± 8, n = 12 % control | not detected | ~20 | 0.372 | approximately 25 times | −0.429 | ~6 | 1/50 |
